The subject of the experiment is B6C3F1 mice, B16 melanoma ip, median survival T/C. Description: NCI In Vivo Anticancer Drug Screen. Data for tumor model B16 Melanoma (intraperitoneal) in B6C3F1 mice. Particulars: endpoint: median survival time, higher = longer survival. Put shortly:
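Values are T/C ratios: the measurement in treated animals divided by that in vehicle-treated controls, using survival or tumor size in mice carrying transplantable tumors.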

[1] abbreviates: dose: 12.5 mg/kg/injection, schedule: Q01DX009 (ip), vehicle: saline with Tween-80.
Setting [2] is: dose: 25.0 mg/kg/injection, schedule: Q01DX009 (ip), vehicle: saline with Tween-80.
Setting [3] is: dose: 50.0 mg/kg/injection, schedule: Q01DX009 (ip), vehicle: saline with Tween-80.

7 compounds from PubChem BioAssay AID200 (DTP/NCI, 2004) can be followed below.

Several values for one entry are separate records, joined by “and”; a condition that tells them apart may be missing. Equal values may be shown once. Toxic doses and inconclusive results are not listed.

With `[Cl][Pt][Cl].[NH-]C(CO)C(=O)O` (stereo unspecified), the T/C (dose: 3.13 mg/kg/injection, schedule: Q01DX009 (ip), vehicle: water) was 98 % of control; the T/C (dose: 6.25 mg/kg/injection, schedule: Q01DX009 (ip), vehicle: water) was 106 % of control; the T/C (dose: 12.5 mg/kg/injection, schedule: Q01DX009 (ip), vehicle: water) was 116 % of control and 107 % of control; the T/C (dose: 25.0 mg/kg/injection, schedule: Q01DX009 (ip), vehicle: water) was 120 % of control; the T/C (dose: 50.0 mg/kg/injection, schedule: Q01DX009 (ip), vehicle: water) is 114 % of control.
Regarding `O=C(Nc1ccccc1)c1c(O)[nH]c(=O)[nH]c1=O`, the T/C is, setting by setting: under setting [1], 103 % of control; under setting [2], 110 % of control and 100 % of control; under setting [3], 114 % of control and 115 % of control.
For the compound `Nc1ccc(S(=O)(=O)N/N=C/c2ccccc2[N+](=O)[O-])cc1`, the T/C is 95 % of control (dose: 3.12 mg/kg/injection, schedule: Q01DX009 (ip), vehicle: saline with Tween-80); 95 % of control (dose: 6.25 mg/kg/injection, schedule: Q01DX009 (ip), vehicle: saline with Tween-80); 96 % of control under setting [1]; 101 % of control under setting [2]; 104 % of control under setting [3].
Take `CC1(C)OCC2OC=CC(=O)C2O1` (stereo unspecified): the T/C was 102 % of control under setting [2]; 100 % of control under setting [3]; 97 % of control (dose: 100.0 mg/kg/injection, schedule: Q01DX009 (ip), vehicle: saline with Tween-80); 105 % of control (dose: 200.0 mg/kg/injection, schedule: Q01DX009 (ip), vehicle: saline with Tween-80); 95 % of control (dose: 400.0 mg/kg/injection, schedule: Q01DX009 (ip), vehicle: saline with Tween-80).
In the case of `CC(=O)OC1C(O)C(C)OC(OC2C(OC(=O)C3CCC4C(C3)OC3(CC(OC(=O)/C=C/c5ccccc5)C(C)CO3)C43CO3)OC(C)C(O)C2OC(C)=O)C1O` (stereo unspecified), the T/C is, setting by setting: (dose: 0.38 mg/kg/injection, schedule: Q03HX024 (ip), vehicle: other) 111 % of control; (dose: 0.75 mg/kg/injection, schedule: Q03HX024 (ip), vehicle: other) 120 % of control; (dose: 0.9 mg/kg/injection, schedule: Q01DX005 (iv), vehicle: other) 111 % of control; (dose: 1.0 mg/kg/injection, schedule: Q01DX009 (ip), vehicle: distilled water + alcohol) 122 % of control; (dose: 1.0 mg/kg/injection, schedule: Q01DX009 (ip), vehicle: other) 120 % of control and 122 % of control; (dose: 1.0 mg/kg/injection, schedule: Q01DX009 (ip), vehicle: saline + Tween-80 + alcohol) 116 % of control. Further, the T/C (dose: 1.0 mg/kg/injection, schedule: Q01DX009 (ip), vehicle: saline + alcohol) was 110 % of control and 115 % of control; the T/C (dose: 1.13 mg/kg/injection, schedule: Q03HX008 (ip), vehicle: other) was 123 % of control; the T/C (dose: 1.8 mg/kg/injection, schedule: Q01DX005 (iv), vehicle: other) was 103 % of control; the T/C (dose: 2.0 mg/kg/injection, schedule: Q01DX009 (ip), vehicle: distilled water + alcohol) was 158 % of control; the T/C (dose: 2.0 mg/kg/injection, schedule: Q01DX009 (ip), vehicle: other) was 152 % of control; the T/C (dose: 2.0 mg/kg/injection, schedule: Q01DX009 (ip), vehicle: saline + Tween-80 + alcohol) was 157 % of control. The T/C was 114 % of control (dose: 2.25 mg/kg/injection, schedule: Q01DX001 (iv), vehicle: other); 119 % of control (dose: 2.25 mg/kg/injection, schedule: Q03HX008 (ip), vehicle: other); 122 % of control (dose: 3.0 mg/kg/injection, schedule: Q04DX003 (ip), vehicle: other); 107 % of control (dose: 3.6 mg/kg/injection, schedule: Q01DX005 (iv), vehicle: other); 184 % of control (dose: 4.0 mg/kg/injection, schedule: Q01DX009 (ip), vehicle: distilled water + alcohol); 175 % of control (dose: 4.0 mg/kg/injection, schedule: Q01DX009 (ip), vehicle: other). Moreover, the T/C is, setting by setting: (dose: 4.0 mg/kg/injection, schedule: Q01DX009 (ip), vehicle: saline + Tween-80 + alcohol) 185 % of control; (dose: 4.0 mg/kg/injection, schedule: Q01DX009 (ip), vehicle: saline) 163 % of control; (dose: 4.0 mg/kg/injection, schedule: Q01DX009 (oral), vehicle: other) 102 % of control; (dose: 4.0 mg/kg/injection, schedule: Q01DX009 (sc), vehicle: other) 108 % of control; (dose: 4.5 mg/kg/injection, schedule: Q01DX001 (ip), vehicle: other) 117 % of control; (dose: 4.5 mg/kg/injection, schedule: Q01DX001 (iv), vehicle: other) 105 % of control. Besides, the T/C runs as follows: (dose: 7.2 mg/kg/injection, schedule: Q01DX005 (iv), vehicle: other) 119 % of control; (dose: 8.0 mg/kg/injection, schedule: Q01DX009 (ip), vehicle: distilled water + alcohol) 176 % of control; (dose: 8.0 mg/kg/injection, schedule: Q01DX009 (ip), vehicle: other) 158 % of control and 174 % of control; (dose: 8.0 mg/kg/injection, schedule: Q01DX009 (ip), vehicle: saline + Tween-80 + alcohol) 182 % of control; (dose: 8.0 mg/kg/injection, schedule: Q01DX009 (ip), vehicle: saline) 161 % of control; (dose: 8.0 mg/kg/injection, schedule: Q01DX009 (oral), vehicle: other) 104 % of control. In addition, the T/C runs as follows: (dose: 8.0 mg/kg/injection, schedule: Q01DX009 (sc), vehicle: other) 106 % of control; (dose: 8.0 mg/kg/injection, schedule: Q02DX005 (ip), vehicle: saline + Tween-80 + alcohol) 158 % of control; (dose: 9.0 mg/kg/injection, schedule: Q01DX001 (ip), vehicle: other) 114 % of control; (dose: 9.0 mg/kg/injection, schedule: Q01DX001 (iv), vehicle: other) 111 % of control; (dose: 12.0 mg/kg/injection, schedule: Q04DX003 (ip), vehicle: saline + alcohol) 124 % of control; (dose: 14.4 mg/kg/injection, schedule: Q01DX005 (ip), vehicle: other) 160 % of control. Besides, the T/C was 113 % of control (dose: 14.4 mg/kg/injection, schedule: Q01DX005 (iv), vehicle: other); 150 % of control (dose: 16.0 mg/kg/injection, schedule: Q01DX009 (ip), vehicle: distilled water + alcohol); 177 % of control and 188 % of control (dose: 16.0 mg/kg/injection, schedule: Q01DX009 (ip), vehicle: other); 179 % of control (dose: 16.0 mg/kg/injection, schedule: Q01DX009 (ip), vehicle: saline + Tween-80 + alcohol); 102 % of control (dose: 16.0 mg/kg/injection, schedule: Q01DX009 (oral), vehicle: other); 114 % of control (dose: 16.0 mg/kg/injection, schedule: Q01DX009 (sc), vehicle: other). The T/C (dose: 16.0 mg/kg/injection, schedule: Q02DX005 (ip), vehicle: saline + Tween-80 + alcohol) is 166 % of control; the T/C (dose: 16.0 mg/kg/injection, schedule: Q02DX005 (ip), vehicle: saline + alcohol) was 155 % of control; the T/C (dose: 18.0 mg/kg/injection, schedule: Q01DX001 (ip), vehicle: other) is 120 % of control; the T/C (dose: 18.0 mg/kg/injection, schedule: Q01DX001 (iv), vehicle: other) is 117 % of control; the T/C (dose: 32.0 mg/kg/injection, schedule: Q01DX009 (oral), vehicle: other) is 101 % of control; the T/C (dose: 32.0 mg/kg/injection, schedule: Q01DX009 (sc), vehicle: other) was 112 % of control. The T/C by setting is: (dose: 32.0 mg/kg/injection, schedule: Q02DX005 (ip), vehicle: saline + alcohol) 154 % of control; (dose: 36.0 mg/kg/injection, schedule: Q01DX001 (ip), vehicle: other) 119 % of control; (dose: 96.0 mg/kg/injection, schedule: Q04DX003 (ip), vehicle: saline + Tween-80 + alcohol) 94 % of control.
For `CC(C)C(N)C(=O)Nc1nncs1` (stereo unspecified), the T/C is 102 % of control (dose: 12.5 mg/kg/injection, schedule: Q01DX009 (ip), vehicle: saline); 104 % of control (dose: 25.0 mg/kg/injection, schedule: Q01DX009 (ip), vehicle: saline); 98 % of control (dose: 50.0 mg/kg/injection, schedule: Q01DX009 (ip), vehicle: saline); 113 % of control (dose: 100.0 mg/kg/injection, schedule: Q01DX009 (ip), vehicle: saline); 114 % of control (dose: 200.0 mg/kg/injection, schedule: Q01DX009 (ip), vehicle: saline); 117 % of control (dose: 400.0 mg/kg/injection, schedule: Q01DX009 (ip), vehicle: saline).
Regarding `CN(N=O)C(N)=O`, for the setting “dose: 12.0 mg/kg/injection, schedule: Q01DX009 (ip), vehicle: saline”, the T/C was 188 % of control.
